The source of these data is patent US20250122190A1, “HALOGEN-SUBSTITUTED PYRIDAZINONE COMPOUND AND APPLICATION THEREOF” (MEDSHINE DISCOVERY INC., priority 2021, published 2025).

Usually pIC50 stands for the IC50 on a negative log10 scale, so that one unit is a factor of ten. Low readings indicate a high IC50, high ones a low IC50.

pIC50: −log10 of the molar value.

For the assay, the target named is T1, hTRPC5-T478C (Homo sapiens, UniProt Q9UL62).
T1 sequence (Q9UL62 1-973): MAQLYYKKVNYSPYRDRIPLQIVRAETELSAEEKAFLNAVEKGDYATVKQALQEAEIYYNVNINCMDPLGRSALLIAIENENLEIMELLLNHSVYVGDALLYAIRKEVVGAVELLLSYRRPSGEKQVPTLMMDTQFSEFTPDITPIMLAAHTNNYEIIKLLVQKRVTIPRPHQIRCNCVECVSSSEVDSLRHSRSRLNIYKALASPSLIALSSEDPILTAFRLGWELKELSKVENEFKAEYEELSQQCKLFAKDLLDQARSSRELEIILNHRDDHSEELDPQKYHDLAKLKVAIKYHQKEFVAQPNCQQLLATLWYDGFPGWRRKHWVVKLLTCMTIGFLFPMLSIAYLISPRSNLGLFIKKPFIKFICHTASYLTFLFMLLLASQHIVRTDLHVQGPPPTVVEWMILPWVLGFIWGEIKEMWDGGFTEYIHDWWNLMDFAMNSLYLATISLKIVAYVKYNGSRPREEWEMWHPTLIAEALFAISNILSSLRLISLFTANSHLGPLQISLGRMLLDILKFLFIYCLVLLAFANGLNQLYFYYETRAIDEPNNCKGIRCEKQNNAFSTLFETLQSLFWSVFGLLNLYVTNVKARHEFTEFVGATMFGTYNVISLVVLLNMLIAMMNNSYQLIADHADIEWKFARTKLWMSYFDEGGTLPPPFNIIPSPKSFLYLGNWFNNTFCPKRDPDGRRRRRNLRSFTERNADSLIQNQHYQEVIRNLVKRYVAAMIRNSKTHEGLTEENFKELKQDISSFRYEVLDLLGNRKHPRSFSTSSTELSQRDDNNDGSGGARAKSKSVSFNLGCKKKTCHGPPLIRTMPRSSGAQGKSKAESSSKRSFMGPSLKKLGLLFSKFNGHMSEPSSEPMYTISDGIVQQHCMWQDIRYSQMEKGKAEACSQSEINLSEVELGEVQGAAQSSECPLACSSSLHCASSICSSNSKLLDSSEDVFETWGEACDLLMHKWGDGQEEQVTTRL
Kind of assay: hTRPC5-T478C patch clamp IC50 assay. The class given is cell-based. Conditions: hTRPC5-T478C-HEK cells, whole-cell patch clamp, Englerin A agonist. The method, then: Cell culture: hTRPC5-T478C-HEK cells were cultured in a humid environment in 5% CO2 at 37° C.
Cell culture medium ingredients: • DMEM, Supplier: Gibco, Catalog No. 11965-092; • FBS, Supplier: Gibco, Catalog No. 10099-141C, Concentration: 10%; • Pen/Strep, Supplier: Invitrogen, Catalog No. 15140-122, Concentration: 1%; • Zeocin, Supplier: Invitrogen, Catalog No. R25005, Concentration: 200 μg/mL; • Blasticidin S, Supplier: Invitrogen, Catalog No. R21001, Concentration: 5 μg/mL.
In general, the TRPC5-T478C cell line was passaged three times weekly. The dilution factor for each passage was 1:3. Once the cells reached about 80% confluence in the T-75 flask, the cell line was digested with trypsin for about 1 minute and the cell suspension was removed from the flask with a pipette. Depending on the dilution ratio, the removed cell suspension would be transferred to another T-75 flask containing cell culture medium. Note that in order to maintain the logarithmic growth of the cells, the confluence of the cells should be maintained at the subconfluent stage and the cells should be passaged once every 2 to 3 days depending on the proliferation rate of the cell line.
(1) Extracellular fluid: sodium chloride (145 mmol/L), potassium chloride (4 mmol/L), magnesium chloride (1.5 mmol/L), glucose (10 mmol/L), hydroxyethyl piperazineethanesulfonic acid (HEPES, 10 mmol/L). The extracellular fluid was adjusted to pH 7.4 with NaOH, and the osmotic pressure was adjusted to about 305 mOsm/L with pure water or sucrose.
(2) Intracellular fluid: cesium chloride (140 mmol/L), ethylene glycol diethyl ether diamine tetraacetic acid (EGTA, 1 mmol/L), magnesium chloride (2 mmol/L), glucose (10 mmol/L), hydroxyethyl piperazineethanesulfonic acid (HEPES, 10 mmol/L). The intracellular fluid was adjusted to pH 7.2 with […], and the osmotic pressure was adjusted to about 295 mOsm/L with pure water or sucrose.
(3) The extracellular fluid was required to be formulated once a week, and the intracellular fluid was required to be subpackaged and stored at −20° C. after formulation.
Positive reference compounds Englerin A and 2-aminoethoxydiphenyl borate (2-APB) were dissolved in 100% DMSO and stored as a 10 mM working solution after formulation. The test compounds were dissolved in 100% DMSO and stored as a 10 mM working solution after formulation. The final concentration of DMSO in the test solution should be less than 0.3%.
Whole-cell patch clamping was performed at room temperature. The electrical signals recorded using an EPC 10 USB amplifier (HEKA Elektronik, Germany) were low-pass filtered at 3 kHz and finally recorded in PatchMaster 2×90.5 software (HEKA Elektronik, Germany). In this step, the quality control standards were that the cell high-resistance seal was formed at a value greater than 500 MOhms and the detection current was greater than 0.3 nA.
The recording electrode was a borosilicate glass capillary (GC150tF-10, Harvard Apparatus Co., UK), which was pulled by a vertical puller (NARISHIGE PC-10, Japan) and polished. In this step, the quality control standard was that the electrode resistance was between 2 to 5 MΩ.
During whole-cell patch clamp recordings, a continuous filling system (BT100-2J, LongerPump, China) was used to continuously perfuse extracellular fluid. The filling system was mounted on the stage of an upright microscope (FN—S2N, Nikon, Japan), and the filling tip was manually positioned under the microscope.
The voltage instructions for hTRPC5-T478C current amplitude detection were as follows: the cells were clamped as follows: the clamping potential changed in a stepped manner from −40 mV to −80 mV (duration: 50 ms); then the clamping voltage ramped up to +80 mV, and the whole process lasted for 200 ms; then clamping was performed at +80 mV for 50 ms, and finally, the voltage returned to the clamping potential of −40 mV. […]
(In general: Patch clamp records ionic current or voltage across a cell membrane.)

`O=c1[nH]ncc(N2CCc3c(ncnc3Sc3ccc(F)cc3C(F)(F)F)C2)c1Cl` [Compound WX002] gave a pIC50 of 6.94.

The compound `O=c1[nH]ncc(N2CCc3c(ncnc3Oc3ccc(F)cc3Br)C2)c1Cl` [Compound WX004] gave a pIC50 of 7.04.

Compound `O=c1[nH]ncc(N2CCc3c(ncnc3Oc3ccc(F)cc3C(F)(F)F)C2)c1Br` [Compound WX009] showed a pIC50 of 6.52.

For `CC(F)(F)c1cc(F)ccc1Oc1ncnc2c1CCN(c1cn[nH]c(=O)c1Cl)C2` [Compound WX010], the pIC50 is 6.71.

Compound `COCc1nc2c(c(Oc3ccc(F)cc3C(F)(F)F)n1)CCN(c1cn[nH]c(=O)c1Cl)C2` [Compound WX011] had a pIC50 of 6.72.

`O=c1[nH]ncc(N2CCc3c(nc(CO)nc3Sc3ccc(F)cc3C(F)(F)F)C2)c1Cl` [Compound WX012] had a pIC50 of 7.78.

`Nc1nc2c(c(Sc3ccc(F)cc3C(F)(F)F)n1)CCN(c1cn[nH]c(=O)c1Cl)C2` [Compound WX013] gave a pIC50 of 7.81.
